From the supplement of paper PMC13380429

Tests used:
Details in all cases: 72 h
Caco-2 [1] = assay: cell viability relative to DMSO; higher = less toxic
Calu-3 [2] = assay: as above
HepG2 [3] = assay: as above
U2OS [4] = assay: as above
Vero E6 [5] = assay: as above
Caco-2 [6] = assay: relative viability EC50 (midpoint between 100% and the lowest measured viability); higher = less toxic
Calu-3 [7] = assay: as above
HepG2 [8] = assay: as above
U2OS [9] = assay: as above
Vero E6 [10] = assay: as above
Caco-2 [11] = assay: drug sensitivity score (DSS) for viability; higher = more toxic; extreme values may be limits of the assay
Calu-3 [12] = assay: as above
HepG2 [13] = assay: as above
U2OS [14] = assay: as above
Vero E6 [15] = assay: as above

Row | SMILES | cell viability (Caco-2 [1]; 1 nM) | cell viability (Caco-2 [1]; 10 nM) | cell viability (Caco-2 [1]; 100 nM) | cell viability (Caco-2 [1]; 1000 nM) | cell viability (Caco-2 [1]; 10000 nM) | cell viability (Calu-3 [2]; 1 nM) | cell viability (Calu-3 [2]; 10 nM) | cell viability (Calu-3 [2]; 100 nM) | cell viability (Calu-3 [2]; 1000 nM) | cell viability (Calu-3 [2]; 10000 nM) | cell viability (HepG2 [3]; 1 nM) | cell viability (HepG2 [3]; 10 nM) | cell viability (HepG2 [3]; 100 nM) | cell viability (HepG2 [3]; 1000 nM) | cell viability (HepG2 [3]; 10000 nM) | cell viability (U2OS [4]; 1 nM) | cell viability (U2OS [4]; 10 nM) | cell viability (U2OS [4]; 100 nM) | cell viability (U2OS [4]; 1000 nM) | cell viability (U2OS [4]; 10000 nM) | cell viability (Vero E6 [5]; 1 nM) | cell viability (Vero E6 [5]; 10 nM) | cell viability (Vero E6 [5]; 100 nM) | cell viability (Vero E6 [5]; 1000 nM) | cell viability (Vero E6 [5]; 10000 nM) | relative viability EC50 (Caco-2 [6]) | relative viability EC50 (Calu-3 [7]) | relative viability EC50 (HepG2 [8]) | relative viability EC50 (U2OS [9]) | relative viability EC50 (Vero E6 [10]) | drug sensitivity score (Caco-2 [11]) | drug sensitivity score (Calu-3 [12]) | drug sensitivity score (HepG2 [13]) | drug sensitivity score (U2OS [14]) | drug sensitivity score (Vero E6 [15])
1 | COc1ccc(CN(CCN(C)C)c2ncccn2)cc1 [thonzylamine] | 99.7% | 104% | 93.8% | 101% | 105% | 96.2% | 103% | 96.9% | 92.5% | 101% | 93.2% | 103% | 97.6% | 102% | 98.9% | 97.2% | 101% | 96% | 98.3% | 105% | 102% | 102% | 98.1% | 104% | 95.9% | > 10 µM | > 10 µM | > 10 µM | > 10 µM | > 10 µM | 0 | 0 | 0 | 0 | 0
2 | C[N+]12CCCCC1CCC(=C(c1cccs1)c1cccs1)C2 (centres undefined) [tiquizium] | 89.3% | 96.3% | 89.7% | 90.3% | 100% | 100% | 102% | 97.8% | 111% | 99% | 103% | 86.9% | 98.9% | 93.7% | 94% | 98.1% | 99.2% | 94.3% | 103% | 102% | 106% | 88.6% | 98.3% | 87% | 100% | > 10 µM | > 10 µM | > 10 µM | > 10 µM | > 10 µM | 0 | 0 | 0 | 0 | 0
3 | O=C1NC(=S)NC(=O)C1C(=O)Nc1ccccc1 [merbarone] | 94.7% | 93.3% | 103% | 94% | 94.5% | 99.3% | 100% | 105% | 106% | 110% | 104% | 87.2% | 100% | 99.8% | 102% | 93.9% | 96.3% | 97.4% | 103% | 104% | 100% | 91.6% | 93.9% | 92.7% | 106% | > 10 µM | > 10 µM | > 10 µM | > 10 µM | > 10 µM | 0 | 0 | 0 | 0 | 0
4 | C[N+](C)(C)CCOC(=O)CCC(=O)OCC[N+](C)(C)C [succinylcholine-chloride] | 103% | 97.3% | 99.9% | 97.2% | 104% | 101% | 103% | 101% | 94.8% | 106% | 106% | 97.2% | 106% | 93.3% | 102% | 98.7% | 103% | 101% | 101% | 102% | 108% | 95.8% | 102% | 89.7% | 102% | > 10 µM | > 10 µM | > 10 µM | > 10 µM | > 10 µM | 0 | 0 | 0 | 0 | 0
5 | COc1ccc(COc2ccc(CC#N)cc2)cc1 [O4I1] | 94.7% | 93.9% | 96.3% | 92.9% | 92.2% | 104% | 93.3% | 103% | 89.4% | 102% | 100% | 97% | 98.6% | 95.4% | 94.7% | 102% | 106% | 96.2% | 104% | 95.4% | 100% | 99.4% | 99.1% | 95% | 87.4% | > 10 µM | > 10 µM | > 10 µM | > 10 µM | > 10 µM | 0 | 0 | 0 | 0 | 0.2
6 | CC(=O)OCC(=O)NCCCOc1cccc(CN2CCCCC2)c1 [roxatidine-acetate] | 103% | 91.5% | 97.1% | 101% | 93.9% | 107% | 111% | 103% | 99.5% | 99.8% | 94.3% | 107% | 95.5% | 95.4% | 91.1% | 96% | 95% | 98.7% | 93.9% | 97.6% | 106% | 106% | 99.1% | 103% | 99.2% | > 10 µM | > 10 µM | > 10 µM | > 10 µM | > 10 µM | 0 | 0 | 0 | 0 | 0
7 | Cc1onc(-c2c(Cl)cccc2Cl)c1C(=O)N[C@@H]1C(=O)N2[C@@H]1SC(C)(C)[C@@H]2C(=O)O [dicloxacillin] | 100% | 99.6% | 93.3% | 98.2% | 101% | 98.2% | 84.7% | 96% | 97.6% | 98.9% | 97.5% | 98.1% | 106% | 100% | 110% | 95.6% | 99.9% | 93.7% | 97.9% | 94.9% | 99.4% | 97.7% | 102% | 94.1% | 96.3% | > 10 µM | > 10 µM | > 10 µM | > 10 µM | > 10 µM | 0 | 0 | 0 | 0 | 0
8 | CN(C)c1ccc(/C=C2\C(=O)Nc3ccccc32)cc1 [SU4312] | 96.3% | 106% | 97.5% | 90.6% | 79.6% | 97.7% | 94.3% | 96.4% | 88.4% | 91.8% | 96% | 92.4% | 95.1% | 69.5% | 89.7% | 99.3% | 105% | 94.8% | 96.9% | 90% | 106% | 99.6% | 103% | 103% | 89.3% | > 10 µM | > 10 µM | – | > 10 µM | > 10 µM | 1.2 | 0 | 2 | 0 | 0
9 | Cc1cc(Cn2nnc3c(-c4ccco4)nc(N)nc32)ccc1N [vipadenant] | 110% | 106% | 115% | 113% | 97.1% | 108% | 103% | 108% | 94.1% | 107% | 81.9% | 80.5% | 99% | 91.8% | 96.3% | 99.6% | 97.7% | 98.2% | 98.7% | 101% | 109% | 105% | 99.7% | 92.8% | 88.7% | > 10 µM | > 10 µM | > 10 µM | > 10 µM | > 10 µM | 0 | 0 | 0 | 0 | 0.2
10 | Cn1cc(-c2ccc(S(=O)(=O)n3ccc(/C=C/C(=O)Nc4ccccc4N)c3)cc2)cn1 [4SC-202] | 85.2% | 96.9% | 102% | 73.4% | 42% | 91.7% | 86% | 78.7% | 45.9% | 23.8% | 88.5% | 102% | 92.7% | 52.4% | 25.8% | 95.8% | 96.6% | 102% | 72.5% | 13.3% | 96.7% | 104% | 91% | 69.9% | 30.8% | 1.07 µM | 0.26 µM | 0.623 µM | 1.36 µM | 1.12 µM | 6.6 | 13.3 | 10.1 | 8.8 | 7.2
11 | Cc1cccc(C)c1OCC(=O)N[C@@H](Cc1ccccc1)[C@@H](O)C[C@H](Cc1ccccc1)NC(=O)[C@H](C(C)C)N1CCCNC1=O [Lopinavir] | 95% | 101% | 100% | 101% | 83.7% | 95.4% | 84.9% | 92.7% | 93.9% | 89.2% | 101% | 87.1% | 103% | 105% | 95.4% | 99.5% | 95.2% | 103% | 94.1% | 96.5% | 93.3% | 100% | 100% | 100% | 104% | > 10 µM | > 10 µM | > 10 µM | > 10 µM | > 10 µM | 0.3 | 0 | 0 | 0 | 0
